Measurements published in article PMC10349806 (Nature Communications, 2023).
Where a chain is given by its changes, count along the chain named. Where “and” joins values, the source holds several entries; their conditions need not be identical. Equal values may be shown once.

Columns and labels:
[1] = molecular target: T1, PfCRT variant H273A (Plasmodium falciparum, UniProt Q9N623, A220S/H273A/I356T/K76T/M74I/N326S/N75E/Q271E/R371I); experiment: CQ uptake assay, oocytes expressing H273A; type: cell-based
T1 sequence (Q9N623 1-424 M74I/N75E/K76T/A220S/Q271E/H273A/N326S/I356T/R371I): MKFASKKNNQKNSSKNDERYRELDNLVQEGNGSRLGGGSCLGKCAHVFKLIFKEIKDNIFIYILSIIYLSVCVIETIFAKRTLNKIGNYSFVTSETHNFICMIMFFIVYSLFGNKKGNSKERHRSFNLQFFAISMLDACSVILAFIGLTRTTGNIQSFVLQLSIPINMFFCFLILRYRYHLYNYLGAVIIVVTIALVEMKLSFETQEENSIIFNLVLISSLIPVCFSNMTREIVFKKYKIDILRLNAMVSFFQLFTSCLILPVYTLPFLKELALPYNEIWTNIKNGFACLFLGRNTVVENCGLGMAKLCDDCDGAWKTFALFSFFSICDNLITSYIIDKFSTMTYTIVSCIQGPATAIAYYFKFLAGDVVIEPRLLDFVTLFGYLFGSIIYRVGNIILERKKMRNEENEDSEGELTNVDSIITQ
Experimental: (§1) Site-directed mutagenesis of PfCRT^Dd2 was performed as described using the megaprimer method with overlap extension[21],[54]. The primer pairs used are listed in Supplementary Table 6. Please note that a codon-optimized and oocyte-adapted version of PfCRT^Dd2 was used[22] (Supplementary Fig. 16). The resulting DNA fragment was cloned into the SP64T expression vector and verified by sequencing.
(§2) Oocytes were obtained as described previously. Briefly, adult (>2 years old) female X. laevis frogs (NASCO) were anesthetized in a cooled solution of ethyl 3-amino benzoate methanesulfonate (0.1%, w/v), followed by a surgical removal of parts of the ovary. The ovary lobes were carefully dissected and small pieces of oocytes were incubated in Ca^2+-free ND96 buffer (96 mM NaCl, 2 mM KCl, 1 mM MgCl2 buffered with 5 mM HEPES/NaOH, pH 7.5) supplemented with collagenase D (0.1%, w/v; Roche), BSA (0.5%, w/v), and 9 mm Na2HPO4 at 18 °C for 14-16 h while gentle shaking. After incubation, the oocytes were carefully washed several times with ND96 buffer (96 mM NaCl, 2 mM KCl, 1.8 mM CaCl2, 1 mM MgCl2 buffered with 5 mM HEPES/NaOH, pH 7.5) supplemented with 100 mg l^−1 gentamycin). Defolliculated and healthy-looking stage V-VI oocytes were manually selected for RNA microinjection. The RNA was generated as following: The codon-optimized sequences of PfCRT variants were cloned into the pSP64T expression vector. After vector linearization using the restriction endonucleases BamHI or SalI (New England Biolabs), transcription was performed using the in vitro SP6 mMessage mMachine Kit (Ambion)[34]. The obtained RNA was kept at −80 °C and diluted with nuclease-free water to a concentration of 0.6 μg μl^−1. Precision-bore glass capillary tubes (3.5-inch glass capillaries; Drummond Scientific Co.) were pulled on a vertical puller (P-87 Flaming/Brown micropipette puller, Sutter Instrument Co.), graduated, and placed on a microinjector (Nanoject II Auto-Nanoliter Injector, Drummond Scientific Co.). 50 nl of nuclease-free water alone (control oocytes) or 50 nl of 0.6 μg μl^−1 RNA were injected under stereomicroscopic control. Injected oocytes were incubated for 46–72 h at 18 °C with twice-daily buffer changes before usage in experiments.
(§3) Drug uptake assays were performed as described previously[21],[22],[24],[34]. […] The direction of radio-labeled drug transport is here from the mostly acidic extracellular solution (pH 4.5 or 6.0, as indicated) into the oocyte cytosol (pH ∼ 7.2), which corresponds to the efflux of drug from the acidic digestive vacuole (pH 5.2) into the parasite cytoplasm (pH 7.2). The topology of PfCRT in the oolemma is such that both the N- and C-terminus face the extracellular milieu[3],[22]. In the parasite, the N- and C-terminus face the lumen of the digestive vacuole. CQ uptake kinetics were performed by incubating oocytes in ND96 buffer adjusted to a pH of 4.5, 5.0, 5.5, or 6.0 and supplemented with 50 nM [^3H]CQ and one of 7 different CQ concentrations (10 µM, 50 µM, 100 µM, 200 µM, 300 µM, 400 µM, 500 µM CQ). The reaction was stopped at the 60 min time point, which is in the linear uptake range[22],[34] (Supplementary Fig. 17). […] The radioactivity of each sample was measured using a liquid scintillation analyzer Tri-Carb 4910 TR (PerkinElmer). Oocytes that were injected with water instead of RNA were analyzed in parallel, representing the uptake of a drug by diffusion and/or endogenous permeation pathways. […]

[2] = molecular target: T2, PfCRT variant E198A (Plasmodium falciparum, UniProt Q9N623, A220S/E198A/I356T/K76T/M74I/N326S/N75E/Q271E/R371I); experiment: CQ uptake assay, oocytes expressing E198A; type: cell-based
T2 sequence (Q9N623 1-424 M74I/N75E/K76T/E198A/A220S/Q271E/N326S/I356T/R371I): T1 sequence (Q9N623 1-424 M74I/N75E/K76T/A220S/Q271E/H273A/N326S/I356T/R371I) with E198A, A273H
Experimental: as §1, §2, §3

[3] = test system: PfCRT variant H180A; experiment: CQ uptake assay, oocytes expressing H180A; type: cell-based, Plasmodium falciparum
Experimental: as §1, §2, §3

[4] = H273A, 50 µM CQ, 1 h, mean ± SEM
[5] = pH 4.5, single replicates, Fig 1d left
[6] = pH 6.0, single replicates, Fig 1d left
[7] = E198A, 50 µM CQ, 1 h, mean ± SEM
[8] = H180A, 50 µM CQ, 1 h, mean ± SEM

CCN(CC)CCCC(C)Nc1ccnc2cc(Cl)ccc12 (stereo not drawn) [CQ, chloroquine]
Activity at pH 4.5 [1, 4]: 0.08 ± 0.04 pmol h-1 oocyte-1
Activity at pH 6.0 [1, 4]: 2.43 ± 0.40 pmol h-1 oocyte-1
R-value ([1]; H273A, CQ transport at pH 4.5 / pH 6.0): 0.03 ± 0.02
H273A transport activity pH 4.5 [1, 5]: 0.17 pmol oocyte-1 h-1 and 0.00 pmol oocyte-1 h-1 and 0.06 pmol oocyte-1 h-1
H273A transport activity pH 6.0 [1, 6]: 2.70 pmol oocyte-1 h-1 and 3.11 pmol oocyte-1 h-1 and 1.48 pmol oocyte-1 h-1
Activity at pH 4.5 [2, 7]: 1.23 ± 0.15 pmol h-1 oocyte-1
Activity at pH 6.0 [2, 7]: 3.10 ± 0.44 pmol h-1 oocyte-1
R-value ([2]; E198A, CQ transport at pH 4.5 / pH 6.0): 0.44 ± 0.11
E198A transport activity pH 4.5 [2, 5]: 1.49 pmol oocyte-1 h-1 and 1.34 pmol oocyte-1 h-1 and 0.87 pmol oocyte-1 h-1
E198A transport activity pH 6.0 [2, 6]: 2.08 pmol oocyte-1 h-1 and 3.94 pmol oocyte-1 h-1 and 3.27 pmol oocyte-1 h-1
Activity at pH 4.5 [3, 8]: 1.14 ± 0.27 pmol h-1 oocyte-1
Activity at pH 6.0 [3, 8]: 3.12 ± 0.12 pmol h-1 oocyte-1
R-value ([3]; H180A, CQ transport at pH 4.5 / pH 6.0): 0.36 ± 0.09
H180A transport activity pH 4.5 [3, 5]: 0.55 pmol oocyte-1 h-1 and 1.69 pmol oocyte-1 h-1 and 1.17 pmol oocyte-1 h-1
H180A transport activity pH 6.0 [3, 6]: 2.90 pmol oocyte-1 h-1 and 3.04 pmol oocyte-1 h-1 and 3.41 pmol oocyte-1 h-1
